Read-outs that look alike come from different tables or passages of the source. Non-standard residues stand in square brackets, D forms with d. Residues, ends and D or L forms follow the SMILES beside them.
Tests used:
[1] = system: DH response to tetanus toxoid (TT); parameters: species or system human; conditions: in vivo
[2] = system: IL-2 receptors on T-helper cells; test: T-helper cell IL-2 receptor expression assay; assay type: cell-based, human
[3] = system: gamma-interferon production in normal cells; test: Antigen-induced production of gamma interferon; assay type: cell-based, human
From the text: The LIF assay is described in Gottlieb et al., Modulation of Human T Cell Production, J. Immunology 132: 256-260 (Jan. 1984), at p. 257. Protocols for the other assays are believed to be known to those skilled in this art. A convenient reference for the gamma-interferon assay in Sinha et al., Bio/Technology 6:810 (1988), at pp. 814-15.
Preparations of 0.1 Lf /ml and 1.0 Lf /ml TT were used to determine the effect of Beta-1.11 (endogenous YG-material) on production of gamma-interferon in normal cells. As before, serial dilutions of Beta-1.11 were prepared from 46.5 pM to 91 fM.

[4] = system: L1210 leukemia cells in BDF1 strain mice; test: Mouse L1210 leukemia survival test; assay type: in vivo; conditions: 2 fg intradermally every third day (about 100 fg/kg); 5 mice per group; present-tense example
Procedure: Ten BDF1 strain mice are divided into two groups of 5. Each mouse is injected with 100 L1210 leukemia cells from ascitic fluid of DBA/2 host mice.
The mice in Group I (control) are thereafter given injections of 0.1 ml sterile saline every third day. The mice in Group II are thereafter given intradermal injections of 2 fg of synthetic YG of Example 20 in 0.1 ml of sterile saline, every third day. The mice weigh approximately 20 g each, so that 2 fg represents approximately 100 fg/kg of bodyweight.
The mice in Group I (control) are thereafter given injections of 0.1 ml sterile saline every third day. The mice in Group II are thereafter given intradermal injections of 2 fg of synthetic Tyr-D-Ala-Gly of Example 25 in 0.1 ml of sterile saline, every third day. The mice were approximately 20 g each, so that 2 fg represents approximately 100 fg/kg of bodyweight.

[5] = system: cell-mediated immune system response; test: Amplifier (immunological) activity of HPLC fractions and their constituents; parameters: species or system human; conditions: for immunological activity as assayed by DH test: moieties in effluents of Example 5 process; for amplifier / immunological activity: HPLC fractions of human leukocyte dialysate and constituents
From the text: Absorbance was monitored at […], 0.1 Absorbance Units=Full Scale. […] The first peak was lower than the second and third, in terms of absorbance units, and is believed to be an artifact of the system associated with the ethanol solvent or due to elution of salts. The second and third peaks varied in relative height from preparation to preparation.
Other moieties found present in effluents of this process were Gly-Gly, Ser-Phe, and Ala, along with possibly other amino acid residues as well.

Compound: Tyr-Gly-Gly-Phe-Ile (YGGFI; printed: Tyr-Gly-Gly-Phe-Ile)
- immunological activity in DH assay [1]: Significant immunological activity is not observed
- molar concentration giving activity comparable to YG, relative to YG in Example 21 [1]: 8-10 orders of magnitude

Compound: C[C@@H](NC(=O)[C@@H](N)Cc1ccc(O)cc1)C(=O)NCC(=O)O [Tyr-D-Ala-Gly, L-tyrosyl-D-alanyl-L-glycine] (H-Tyr-[dA]-Gly-OH)
- concentration giving the highest figure for high density of receptors [2]: approximately 2 fM
- effect relative to endogenous material [2]: approximately an order of magnitude less in effect than endogenous YGG-material
- increase of IL-2 receptors (high density maximum), factor [2]: approximately 1.5
- concentration at maximum gamma-interferon production ([3]; 1.0 Lf/ml TT): approximately 20 fM
- potency relative to endogenous YG-material ([3]; gamma interferon assay, human sources not identical): an order of magnitude more potent
- amplifier effect in DH assay [1]: slightly better than that observed in Table 1 of Gottlieb U.S. Pat. No. 4,699,898
- skin reaction without TT [1]: No reaction is observed
- mean survival longer than control group [4]: approximately 2.8 days

Compound: C[C@H](N)C(=O)O [Ala]
- immunological activity as assayed by DH test [5]: None of these other moieties appeared to possess immunological activity

Compound: Gly-Gly
- amplifier / immunological activity [5]: found to lack intrinsic amplifier activity
- immunological activity as assayed by DH test [5]: None of these other moieties appeared to possess immunological activity

Compound: N[C@@H](Cc1ccc(O)cc1)C(=O)NCC(=O)O [synthetic YG, L-tyrosylglycine]
- increase of IL-2 receptors (high density maximum), factor [2]: approximately 1.6
- concentration giving the highest figure for high density of receptors ([2]; TT + serial dilutions): approximately 22 fM
- potency relative to corresponding endogenous amplifier materials Beta-1.11 and Beta-1.12 [1]: an order of magnitude less potent
- mean survival longer than control group [4]: approximately 2.4 days

Compound: N[C@@H](Cc1ccc(O)cc1)C(=O)NCC(=O)NCC(=O)O [YGG, L-tyrosylglycylglycine] (H-Tyr-Gly-Gly-OH)
- potency relative to corresponding endogenous amplifier materials Beta-1.11 and Beta-1.12 [1]: an order of magnitude less potent

Compound: N[C@@H](Cc1ccccc1)C(=O)O [phenylalanine]
- amplifier / immunological activity [5]: found to lack intrinsic amplifier activity
